# Key:
# [1] = molecular target: T1, Kinase A and SpoOF (Bacillus subtilis, UniProt P16497); assay: Autophosphorylation of Kinase A and Transphosphorylation of SPoOF Assay; assay type: biochemical; conditions: inhibition of Kinase A autophosphorylation / SpoOF transphosphorylation, [32P]ATP, gel, phosphoimager
# T1 sequence (P16497 1-606): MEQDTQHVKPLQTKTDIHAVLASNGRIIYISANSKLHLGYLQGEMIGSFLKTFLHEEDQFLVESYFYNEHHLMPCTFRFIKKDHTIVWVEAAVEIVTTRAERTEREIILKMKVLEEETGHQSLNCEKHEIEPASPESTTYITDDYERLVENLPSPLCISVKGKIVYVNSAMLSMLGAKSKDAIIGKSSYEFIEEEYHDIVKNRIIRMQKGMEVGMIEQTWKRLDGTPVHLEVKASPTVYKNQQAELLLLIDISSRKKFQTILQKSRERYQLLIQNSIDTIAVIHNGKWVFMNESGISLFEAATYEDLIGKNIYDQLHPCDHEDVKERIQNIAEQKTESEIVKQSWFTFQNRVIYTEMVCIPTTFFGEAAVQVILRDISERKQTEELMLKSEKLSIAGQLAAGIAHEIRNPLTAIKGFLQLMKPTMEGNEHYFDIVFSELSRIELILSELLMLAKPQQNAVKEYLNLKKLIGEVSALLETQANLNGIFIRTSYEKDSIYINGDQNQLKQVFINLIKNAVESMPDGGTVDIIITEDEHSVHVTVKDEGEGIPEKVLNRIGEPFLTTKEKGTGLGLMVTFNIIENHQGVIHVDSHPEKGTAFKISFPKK
# [2] = test system: S. epi oc2603; assay: MIC, microdilution broth method (NCCLS); assay type: cell-based; set-up: unit not given here; conditions: cation supplemented Mueller Hinton broth, 35° C., 16-20 hours
# Description: (§1) The in vitro antimicrobial spectrum of the compounds of the present invention were determined by the microdilution broth method following the test method from the National Committee for […] (NCCLS ). The method is described in the NCCLS Document M7-A2, Vol. 10, No.8 "Methods for Dilution Antimicrobial Susceptibility Test for Bacteria that Grow Aerobically--Second Edition".
# (§2) In this method two fold serial dilutions of drug in cation supplemented Mueller Hinton broth are added to wells in microdilution trays. The test organisms are prepared by adjusting the turbidity of actively growing broth cultures so that the final concentration of test organism after it is added to the wells is approximately 5×10^4 colony forming units per well delivered by the Steers replicating device.
# (§3) Following inoculation of the microdilution trays, the trays are incubated at 35° C. for 16-20 hours and then read. […] The amount of growth in the wells containing the test compound is compared with the amount of growth in the growth-control wells used in each tray.
# [3] = test system: C. tropicalis; assay: MIC, microdilution broth method (NCCLS); assay type: cell-based; conditions: cation supplemented Mueller Hinton broth, 35° C., 16-20 hours; unit assumed
# Description: as §1, §2, §3
# [4] = test system: A. niger 10578; assay: MIC, microdilution broth method (NCCLS); assay type: cell-based; conditions: cation supplemented Mueller Hinton broth, 35° C., 16-20 hours; unit assumed
# Description: as §1, §2, §3
# [5] = test system: S. aureus ATCC 29213; assay: MIC, microdilution broth method (NCCLS); assay type: cell-based; conditions: cation supplemented Mueller Hinton broth, 35° C., 16-20 hours; unit assumed
# Description: as §1, §2, §3
# [6] = test system: MRSA oc667; assay: MIC, microdilution broth method (NCCLS); assay type: cell-based; conditions: cation supplemented Mueller Hinton broth, 35° C., 16-20 hours; unit assumed
# Description: as §1, §2, §3
# [7] = test system: E. faecalis ACTCC 29212; assay: MIC, microdilution broth method (NCCLS); assay type: cell-based; conditions: cation supplemented Mueller Hinton broth, 35° C., 16-20 hours; unit assumed
# Description: as §1, §2, §3
# [8] = test system: C. albicans 10231; assay: MIC, microdilution broth method (NCCLS); assay type: cell-based; conditions: cation supplemented Mueller Hinton broth, 35° C., 16-20 hours; unit assumed
# Description: as §1, §2, §3
# [9] = test system: K. pneum. oc1943; assay: MIC, microdilution broth method (NCCLS); assay type: cell-based; conditions: cation supplemented Mueller Hinton broth, 35° C., 16-20 hours; unit assumed
# Description: as §1, §2, §3
# [10] = test system: Ps. aerug. oc161; assay: MIC, microdilution broth method (NCCLS); assay type: cell-based; conditions: cation supplemented Mueller Hinton broth, 35° C., 16-20 hours; unit assumed
# Description: as §1, §2, §3
# [11] = test system: MRSA oc2089; assay: MIC, microdilution broth method (NCCLS); assay type: cell-based; conditions: cation supplemented Mueller Hinton broth, 35° C., 16-20 hours; unit assumed
# Description: as §1, §2, §3
# [12] = test system: Ps. aerug. oc27853; assay: MIC, microdilution broth method (NCCLS); assay type: cell-based; conditions: cation supplemented Mueller Hinton broth, 35° C., 16-20 hours; unit assumed
# Description: as §1, §2, §3
# [13] = test system: E. coli oc2605; assay: MIC, microdilution broth method (NCCLS); assay type: cell-based; conditions: cation supplemented Mueller Hinton broth, 35° C., 16-20 hours; unit assumed
# Description: as §1, §2, §3
# [14] = test system: E. faecalis oc3041; assay: MIC, microdilution broth method (NCCLS); assay type: cell-based; conditions: cation supplemented Mueller Hinton broth, 35° C., 16-20 hours; unit assumed
# Description: as §1, §2, §3
# [15] = test system: E. coli oc2530; assay: MIC, microdilution broth method (NCCLS); assay type: cell-based; conditions: cation supplemented Mueller Hinton broth, 35° C., 16-20 hours; unit assumed
# Description: as §1, §2, §3
# [16] = test system: E. faecium oc2993; assay: MIC, microdilution broth method (NCCLS); assay type: cell-based; conditions: cation supplemented Mueller Hinton broth, 35° C., 16-20 hours; unit assumed
# Description: as §1, §2, §3
SMILES,IC50 [1],IC min [1],further results
C1=CC(CCOc2ccc(CCNCCN3CCCC3)cc2)(Cc2ccccc2)CCC1 (stereo not drawn) [Compound 1],210 mM,62.5 mM,
C1=CC(CCOc2ccc(CCCNCCN3CCCC3)cc2)(Cc2ccccc2)CCC1 (stereo not drawn) [Compound 3],159 mM,31.25 mM,MIC S. epi oc2603 [2]: 8; MIC C. tropicalis [3]: 8 µg/mL; MIC A. niger 10578 [4]: 4 µg/mL; MIC S. aureus ATCC 29213 [5]: 8 µg/mL; MIC MRSA oc667 [6]: 8 µg/mL; MIC E. faecalis ACTCC 29212 [7]: 8 µg/mL; MIC C. albicans 10231 [8]: > 64 µg/mL; MIC K. pneum. oc1943 [9]: 32 µg/mL; MIC Ps. aerug. oc161 [10]: > 64 µg/mL; MIC MRSA oc2089 [11]: 8 µg/mL; MIC Ps. aerug. oc27853 [12]: > 64 µg/mL; MIC E. coli oc2605 [13]: 16 µg/mL; MIC E. faecalis oc3041 [14]: 8 µg/mL; MIC E. coli oc2530 [15]: 8 µg/mL; MIC E. faecium oc2993 [16]: 8 µg/mL
NCc1ccc(OCCC2(Cc3cccc(Cl)c3)C=CCCC2)cc1 (stereo not drawn) [Compound 5],18.5 mM,15.6 mM,
N=C(N)NCc1ccc(OCCC2(Cc3cccc(Cl)c3)C=CCCC2)cc1 (stereo not drawn) [Compound 6],35.8 mM,,
NC(=O)c1ccc(OCCC2(Cc3cccc(Cl)c3)C=CCCC2)cc1 (stereo not drawn) [Compound 7],330 mM,,
CNCCCc1cnc(SCCC2(Cc3ccccc3)C=CCCC2)nc1 (stereo not drawn) [Compound 8],92.3 mM,,
COc1cc(CN)ccc1OCCC1(Cc2ccccc2)C=CCCC1 (stereo not drawn) [Compound 9],446 mM,250 mM,
CCNCCc1ccc(NCCC2(Cc3ccccc3)C=CCCC2)cc1 (stereo not drawn) [Compound 10],257 mM,125 mM,
NCCCCc1ccc(OCCC2(Cc3ccccc3)C=CCCC2)cc1 (stereo not drawn) [Compound 11],353 mM,125 mM,
O=C(O)CCc1ccc(OCCC2(c3ccc(F)cc3)C=CCCC2)cc1 (stereo not drawn) [Compound 12],354 mM,125 mM,
NCCc1ccc(OCCC2(Cc3ccccc3)CCCCC2)cc1 [Compound 13],39.5 mM,7.8 mM,
CC(C)NCCc1ccc(OCCC2(CCCc3ccccc3)CCCCC2)cc1 [Compound 14],,500 mM,
CNCCCc1ccc(OCCC2(CCO)C=CCCC2)cc1 (stereo not drawn) [Compound 15],432 mM,125 mM,
NCCc1ccc(OCCC2(Cc3ccc([N+](=O)[O-])cc3)CCCCC2)cc1 [Compound 16],43.5 mM,15.6 mM,
NCCCc1ccc(OCCC2(Cc3ccccc3)C=CCCC2)cc1 (stereo not drawn) [Compound 18],261 mM,125 mM,
CNCCCc1ccc(OCCC2(Cc3ccccc3)C=CCCC2)cc1 (stereo not drawn) [Compound 19],82.1 mM,62.5 mM,
CN(C)CCCc1ccc(OCCC2(Cc3ccccc3)C=CCCC2)cc1 (stereo not drawn) [Compound 20],122 mM,,
C1=CC(CCOc2ccc(CCCNCCN3CCOCC3)cc2)(Cc2ccccc2)CCC1 (stereo not drawn) [Compound 21],728 mM,500 mM,
CC(C)C1(CCOc2ccc(CCN)cc2)C=CCCC1 (stereo not drawn) [Compound 22],94.7 mM,31.25 mM,
CC(C)C1(CCOc2ccc(CCNCCN3CCCC3)cc2)C=CCCC1 (stereo not drawn) [Compound 23],295 mM,125 mM,
OCCNCCCc1ccc(OCCC2(c3ccc(F)cc3)C=CCCC2)cc1 (stereo not drawn) [Compound 25],200 mM,125 mM,
CCCCNCCCc1ccc(OCCC2(c3ccc(F)cc3)C=CCCC2)cc1 (stereo not drawn) [Compound 26],437 mM,250 mM,
CCCNCCCc1ccc(OCCC2(c3ccc(F)cc3)C=CCCC2)cc1 (stereo not drawn) [Compound 27],318 mM,125 mM,
Fc1ccc(C2(CCOc3ccc(CCCNCc4ccccc4)cc3)C=CCCC2)cc1 (stereo not drawn) [Compound 28],,> 1000 mM,
CNCCc1ccc(OCCCC2(Cc3ccccc3)C=CCCC2)cc1 (stereo not drawn) [Compound 30],145 mM,125 mM,

SMILES,IC50 [1],IC min [1],further results
CNCCCc1ccc(OCCC2(CCCc3ccccc3)C=CCCC2)cc1 (stereo not drawn) [Compound 31],91 mM,62.5 mM,
CCCCC1(CCOc2ccc(CCCNC)cc2)C=CCCC1 (stereo not drawn) [Compound 32],164 mM,125 mM,
NCCc1ccc(OCCC2(Cc3ccc(Cl)cc3)C=CCCC2)cc1 (stereo not drawn) [Compound 33],339.5 mM,125 mM,
CNCCCc1ccc(OCCC2(C(C)C)C=CCCC2)cc1 (stereo not drawn) [Compound 35],468.4 mM,125 mM,
CNCCc1ccccc1OCCC1(Cc2ccccc2)C=CCCC1 (stereo not drawn) [Compound 36],,500 mM,
CNCCc1cccc(OCCC2(Cc3ccccc3)C=CCCC2)c1 (stereo not drawn) [Compound 37],107.7 mM,62.5 mM,
N=C(N)NCCCc1ccc(OCCC2(Cc3ccccc3)C=CCCC2)cc1 (stereo not drawn) [Compound 38],164.1 mM,125 mM,
NCCc1ccc(OCCC2(Cc3cccc(Cl)c3)C=CCCC2)cc1 (stereo not drawn) [Compound 39],61.5 mM,31.25 mM,
Clc1cccc(CC2(CCOc3ccc(CCNCCN4CCCC4)cc3)C=CCCC2)c1 (stereo not drawn) [Compound 40],46.8 mM,31.25 mM,
CNCCCc1ccc(OCCC2(Cc3ccc(OC)cc3)C=CCCC2)cc1 (stereo not drawn) [Compound 42],139 mM,62.5 mM,
COc1ccc(CC2(CCOc3ccc(CCCN)cc3)C=CCCC2)cc1 (stereo not drawn) [Compound 43],210 mM,125 mM,
COc1ccc(CC2(CCOc3ccc(CCCNCCN4CCCC4)cc3)C=CCCC2)cc1 (stereo not drawn) [Compound 44],133 mM,62.5 mM,
N=C(N)NCCc1ccc(OCCC2(Cc3cccc(Cl)c3)C=CCCC2)cc1 (stereo not drawn) [Compound 45],17.9 mM,15.6 mM,
COc1ccc(CC2(CCOc3ccc(CCNC(=N)N)cc3)C=CCCC2)cc1 (stereo not drawn) [Compound 47],21 mM,15.6 mM,
CNCCCc1cnc(NCCC2(Cc3ccccc3)C=CCCC2)nc1 (stereo not drawn) [Compound 48],,500 mM,
COc1ccc(CC2(CCOc3ccc(C(N)=O)cc3)C=CCCC2)cc1 (stereo not drawn) [Compound 51],,> 1000 mM,
NCCCc1ccc(OCCC2(Cc3ccc(Cl)cc3)C=CCCC2)cc1 (stereo not drawn) [Compound 52],174 mM,,
COc1ccc(CC2(CCOc3ccccc3CN)C=CCCC2)cc1 (stereo not drawn) [Compound 54],122 mM,,
NCc1ccccc1OCCC1(Cc2ccccc2Cl)C=CCCC1 (stereo not drawn) [Compound 55],91.3 mM,,
COc1ccc(CC2(CCOc3cccc(CNC(=N)N)c3)C=CCCC2)cc1 (stereo not drawn) [Compound 56],66.6 mM,,
COc1ccc(CC2(CCOc3ccc(CNC(=N)N)cc3)C=CCCC2)cc1 (stereo not drawn) [Compound 57],46.6 mM,,
NCc1cccc(OCCC2(Cc3cc(Cl)cc(Cl)c3)C=CCCC2)c1 (stereo not drawn) [Compound 58],74.8 mM,,
NCCNCCc1ccc(OCCC2(Cc3cccc(Cl)c3)C=CCCC2)cc1 (stereo not drawn) [Compound 61],94.6 mM,62.5 mM,
"CC1COc2c(N3CCN(C)CC3)c(F)cc3c(=O)c(C(=O)O)cn1c23 (stereo not drawn) [OFX, reference compound]",,,MIC S. epi oc2603 [2]: 2; MIC C. tropicalis [3]: > 128 µg/mL; MIC A. niger 10578 [4]: > 128 µg/mL; MIC S. aureus ATCC 29213 [5]: 0.5 µg/mL; MIC MRSA oc667 [6]: 0.5 µg/mL; MIC E. faecalis ACTCC 29212 [7]: 2 µg/mL; MIC C. albicans 10231 [8]: > 128 µg/mL; MIC K. pneum. oc1943 [9]: 0.25 µg/mL; MIC Ps. aerug. oc161 [10]: 2 µg/mL; MIC MRSA oc2089 [11]: 4 µg/mL; MIC Ps. aerug. oc27853 [12]: 8 µg/mL; MIC E. coli oc2605 [13]: ≤ 0.12 µg/mL; MIC E. faecalis oc3041 [14]: 2 µg/mL; MIC E. coli oc2530 [15]: ≤ 0.12 µg/mL; MIC E. faecium oc2993 [16]: 4 µg/mL

# Source: patent US5753715A, “2-disubstituted cyclohexenyl and cyclohexyl antimicrobial agents” (Ortho Pharmaceutical Corporation, priority 1995, dated 1998)
